Results published in paper PMC9863109 (Viruses, 2023).

Key:
[1] = system: Ind-3a variola virus strain; conditions: mouse, in vivo, po; cited from earlier work
[2] = system: monkeypox virus strain V79-1-005; conditions: in vivo, po; cited from earlier work
[3] = system: Wistar rats; conditions: rat, in vivo
[4] = system: ICR outbred mice; conditions: mouse, in vivo
[5] = mouse, in vivo
[6] = system: monkeypox virus strain V79-1-005; conditions: mouse, in vivo, po; cited from earlier work
[7] = system: ectromelia virus; conditions: mouse, in vivo, po; cited from earlier work
[8] = system: Wistar rats; conditions: rat, in vivo; remark: listed apart in the source
[9] = system: ICR outbred mice; conditions: mouse, in vivo; remark: listed apart in the source
[10] = system: BALB/c mice; conditions: mouse, in vivo; cited from earlier work
[11] = system: cynomolgus monkeys; conditions: cynomolgus monkey, in vivo; cited from earlier work
[12] = in vivo; conditions: both, ICR, mouse
[13] = system: animals; conditions: in vivo, po; cited from earlier work
[14] = system: monkeypox virus; conditions: cynomolgus monkey, in vivo; cited from earlier work
[15] = system: ectromelia virus; conditions: mouse, in vivo; cited from earlier work
[16] = cynomolgus monkey, in vivo; cited from earlier work
[17] = mouse, in vivo; cited from earlier work
[18] = system: NZW rabbits; conditions: rabbit, in vivo; cited from earlier work

O=C(NNC(=O)C1C2C=CC(C3CC23)C1C(=O)O)c1ccc(C(F)(F)F)cc1 (centres unmarked) [NIOCH-14, 7-({[(4-trifluoromethyl)phenyl]formohydrazido}carbonyl)tricyclo[3.2.2.0^2,4]non-8-en-6-carboxylic acid]
number of infected mice and virus production in the lungs [1]: significantly reduced | signs of disease [2]: no signs of disease | changes in hematological parameters [3]: no significant changes | effect on animals' appearance and behavior [3]: no significant effect | WBC differential [4]: remained unchanged | effect on animals' appearance and behavior [4]: no significant effect | increase of platelet count vs. control group 1 [4]: 28% | reduction of WBC count vs. control group 1 [4]: 23% | Absolute bioavailability Fabs [5]: 22.8% | time of maximum concentration of ST-246 in serum [5]: 15 min | visible adverse reactions to i/v administration [5]: no visible adverse reactions | virus production in the lungs [6]: significantly reduced virus production in the lungs | 50% effective dose [7]: 3.59 µg/g | animal death [8]: did not cause animal death | effect on hematological parameters [8]: no significant effect | hazard class according to GOST 12.1.007-76 [9]: low-hazard compound | macroscopic pathomorphological changes in organs [9]: no macroscopic pathomorphological changes

O=C(NN1C(=O)C2C3C=CC(C4CC34)C2C1=O)c1ccc(C(F)(F)F)cc1 (centres unmarked) [ST-246, N-{3,5-dioxo-4-azatetracyclo[5.3.2.0^2,6.0^8,10]dodec-11-en-4-yl}-4-(trifluoromethyl)benzamide]
disorders or damage in the animals [10]: no disorders or damage | pathological processes [11]: did not cause any pathological processes | Tmax ([12]; iv): 0.25 h | half-life ([12]; iv): 2 h | Cmax ([12]; iv, Cmax): 13200 ng/mL | Cmax ([12]; iv, maximum concentration (Cmax) of ST-246 in serum): 13200 ng/mL | Tmax ([12]; po): 3 h | bioavailability ([12]; po): 12.1% | half-life ([12]; po): 3.4 h | Cmax ([12]; po, Cmax): 15500 ng/mL | Cmax ([12]; po, maximum concentration (Cmax) of ST-246 in serum): 15500 ng/mL | animal death [13]: did not cause death | visible adverse reactions to i/v administration [5]: no visible adverse reactions | effective dose [14]: 3 µg/g | 50% effective dose [7]: 5.08 µg/g | dose of optimal effectiveness [15]: 100 µg/g | absolute oral bioavailability (Fabs) [16]: 31-77% | T1/2 [17]: 2.2 h | Tmax in serum [17]: 4.5 h | plasma Cmax [17]: 44000 ng/mL | pathological effects [18]: No pathological effects
